The text below walks through data of patent publication US7659270B2, “Hepatitis C virus inhibitors” (Bristol-Myers Squibb Company, priority 2006, dated 2010).

The subject of the first assay is HCV 1b-377-neo replicon cells. In words: HCV replicon assay (HCV 1b-377-neo replicon cells). The class given is cell-based, Hepatitis C virus genotype 1b. As to conditions: Hepatitis C virus, read-out: EC50 range against HCV 1b (Range). Here is the method: An HCV Replion assay was utilized in the present disclosure, and was prepared, conducted and validated as described in commonly owned PCT/US2006/022197 and in O'Boyle et. al. Antimicrob Agents Chemother. April 2005;49(4): 1346-53.
HCV 1b-377-neo replicon cells were used to test the currently described compound series as well as cells resistant to compound A due to a Y2065H mutation in NS5A (described in application PCT/US2006/022197). The compounds tested were determined to have more than 10-fold less inhibitory activity on cells resistant to compound A than wild-type cells indicating a related mechanism of action between the two compound series. Thus, the compounds of the present disclosure can be effective to inhibit the function of the HCV NS5A protein and are understood to be as effective in combinations as previously described in application PCT/US2006/022197 and commonly owned WO/04014852. Further, the compounds of the present disclosure can be effective against the HCV 1b genotype. It should also be understood that the compounds of the present disclosure can inhibit multiple genotypes of HCV. […] In one embodiment compounds of the present disclosure are active against the 1a, 1b, 2a, 2b, 3a, 4a, and 5a genotypes.
A general note: In antiviral work, replicon cells carry a viral genome segment that copies itself.
Turning to `CN(C)[C@@H](C(=O)N1CCC[C@H]1c1ncc(-c2ccc(-c3ccc(-c4cnc([C@@H]5CCCN5C(=O)[C@@H](c5ccccc5)N(C)C)[nH]4)cc3)cc2)[nH]1)c1ccccc1` [Example 1, (1R,1′R)-2,2′-(4,4′-biphenyldiylbis(1H-imidazole-5,2-diyl(2S)-2,1-pyrrolidinediyl))bis(N,N-dimethyl-2-oxo-1-phenylethanamine)], the EC50 (usually the concentration at which the effect is half-maximal) lay within 0.01 to 0.999 nM.
`COC(=O)N[C@@H](C(=O)N(C)[C@@H](C)c1ncc(-c2ccc(-c3ccc(-c4cnc([C@H](C)N(C)C(=O)[C@H](NC(=O)OC)c5ccccc5)[nH]4)cc3)cc2)[nH]1)c1ccccc1` [Example 24-18-1, dimethyl (4,4′-biphenyl-diylbis(1H-imidazole-5,2-diyl(1S)-1,1-ethane-diyl(methyli-mino)(1R)-2-oxo-1-phenyl-2,1-ethane-diyl)))biscar-bamate]: the EC50 fell in the range of 0.01 to 0.999 nM.
The same measure, in the same setting: the value for `C[C@@H](c1ncc(-c2ccc(-c3ccc(-c4cnc([C@H](C)N(C)C(=O)[C@@H](c5ccccc5)N(C)C)[nH]4)cc3)cc2)[nH]1)N(C)C(=O)[C@@H](c1ccccc1)N(C)C` [Example 24-18-2, (2R,2′R)-N,N′-(4,4′-biphenyl-diylbis(1H-imidazole-5,2-diyl(1S)-1,1-ethane-diyl))bis(2-(dimethyl-amino)-N-methyl-2-phenyl-acetamide)] was 0.01 to 0.999 nM; that for `C[C@@H](c1ncc(-c2ccc(-c3ccc(-c4cnc([C@H](C)N(C)C(=O)[C@@H](c5ccccc5)N5CCCCC5)[nH]4)cc3)cc2)[nH]1)N(C)C(=O)[C@@H](c1ccccc1)N1CCCCC1` [Example 24-18-3, (2R,2′R)-N,N′-(4,4′-biphenyl-diylbis(1H-imidazole-5,2-diyl(1S)-1,1-ethane-diyl))bis(N-meth-yl-2-phenyl-2-(1-piperi-dinyl)acet-amide)] was 0.01 to 0.999 nM; that for `COC(=O)N[C@@H](C(=O)N(C)[C@@H](C)c1ncc(-c2ccc(-c3ccc(-c4cnc([C@@H]5CCCN5C(=O)[C@H](NC(=O)OC)c5ccccc5)[nH]4)cc3)cc2)[nH]1)c1ccccc1` [Example 24-18-4, methyl ((1R)-2-((2S)-2-(5-(4′-(2-((1S)-1-(((2R)-2-((methoxy-carbonyl)a-mino)-2-phenyl-acetyl)(meth-yl)ami-no)ethyl)-1H-imidazol-5-yl)-4-bi-phenylyl)-1H-imidazol-2-yl)-1-pyrrolidi-nyl)-2-oxo-1-phenyl-ethyl)carba-mate] was 0.01 to 0.999 nM.
As to `C[C@@H](c1ncc(-c2ccc(-c3ccc(-c4cnc([C@@H]5CCCN5C(=O)[C@@H](c5ccccc5)N(C)C)[nH]4)cc3)cc2)[nH]1)N(C)C(=O)[C@@H](c1ccccc1)N(C)C` [Example 24-18-5, (2R)-2-(dimethyl-amino)-N-((1S)-1-(5-(4′-(2-((2S)-1-((2R)-2-(dimethyl-amino)-2-phenyl-acetyl)-2-pyrroli-dinyl)-1H-imida-zol-5-yl)-4-biphenyl-yl)-1H-imidazol-2-yl)ethyl)-N-methyl-2-phenyl-acetamide], the EC50 was 0.01 to 0.999 nM.
Consider `COC(=O)N[C@@H](C(=O)N1CCC[C@H]1c1ncc(-c2ccc(-c3ccc(-c4cnc([C@@H]5CCCN5C(=O)Cc5ccccc5)[nH]4)cc3)cc2)[nH]1)c1ccccc1` [Example 28, methyl((1R)-2-oxo-1-phenyl-2-((2S)-2-(5-(4′-(2-((2S)-1-(phenylacetyl)-2-pyrrolidinyl)-1H-imidazol-5-yl)-4-biphenylyl)-1H-imidazol-2-yl)-1-pyrrolidinyl)ethyl)carbamate], for which the EC50 lay in the range of 1 to 99 nM.
As to `Cc1cc(-c2cnc([C@@H]3CCCN3C(=O)[C@@H](c3ccccc3)N(C)C)[nH]2)ccc1-c1ccc(-c2cnc([C@@H]3CCCN3C(=O)[C@@H](c3ccccc3)N(C)C)[nH]2)cc1C` [Example 121, (1R,1′R)-2,2′-((2,2′-dimethyl-4,4′-biphenyldiyl)bis(1H-imidazole-5,2-diyl(2S)-2,1-pyrrolidinediyl))bis(N,N-dimethyl-2-oxo-1-phenylethanamine)], the EC50 is 0.01 to 0.999 nM.
Same read-out and setting: the value for `COC(=O)N[C@@H](C(=O)N1CCC[C@H]1c1ncc(-c2ccc(-c3ccc(-c4cnc([C@@H]5CCCN5C(=O)Cc5cccnc5)[nH]4)cc3C)cc2)[nH]1)c1ccccc1` [Example 127, methyl ((1R)-2-((2S)-2-(5-(2′-methyl-4′-(2-((2S)-1-(3-pyridinylacetyl)-2-pyrrolidinyl)-1H-imidazol-5-yl)-4-biphenylyl)-1H-imidazol-2-yl)-1-pyrrolidinyl)-2-oxo-1-phenylethyl)carbamate] was 0.01 to 0.999 nM; that for `COC(=O)N[C@@H](C(=O)N1CCC[C@H]1c1ncc(-c2ccc(-c3ccc(-c4cnc([C@@H]5CCCN5C(=O)[C@@H]5CCCO5)[nH]4)cc3C)cc2)[nH]1)c1ccccc1` [Example 128, methyl ((1R)-2-((2S)-2-(5-(2′-methyl-4′-(2-((2S)-1-((2S)-tetrahydro-2-furanylcarbonyl)-2-pyrrolidinyl)-1H-imidazol-5-yl)-4-biphenylyl)-1H-imidazol-2-yl)-1-pyrrolidinyl)-2-oxo-1-phenylethyl)carbamate] was 0.01 to 0.999 nM; that for `CN(C)[C@@H](C(=O)N1CCC[C@H]1c1ncc(-c2ccc(-c3ccc(-c4cnc([C@@H]5CCCN5C(=O)[C@@H](c5ccccc5)N(C)C)[nH]4)cc3C(F)(F)F)cc2)[nH]1)c1ccccc1` [Example 130, (1R,1′R)-2,2′-((2-(trifluoromethyl)-4,4′-biphenyldiyl)bis(1H-imidazole-5,2-diyl(2S)-2,1-pyrrolidinediyl))bis(N,N-dimethyl-2-oxo-1-phenylethanamine)] was 0.01 to 0.999 nM.
Take `COC(=O)N[C@@H](C(=O)N(C)[C@@H](C)c1ncc(-c2ccc(-c3ccc(-c4cnc([C@@H]5CCCN5C(=O)[C@@H](c5ccccc5)N(C)C)[nH]4)cc3)cc2)[nH]1)c1ccccc1` [Example 131.1-1, methyl((1R)-2-(((1S)-1-(5-(4′-(2-((2S)-1-((2R)-2-(dimethylamino)-2-phenylacetyl)-2-pyrrolidinyl)-1H-imidazol-5-yl)-4-biphenylyl)-1H-imidazol-2-yl)ethyl)(methyl)amino)-2-oxo-1-phenylethyl)carbamate]: the EC50 lay within 0.01 to 0.999 nM.
On to `COC(=O)N[C@@H](C(=O)N(C)[C@@H](C)c1ncc(-c2ccc(-c3ccc(-c4cnc([C@@H]5CCCN5C(=O)[C@@H](c5ccccc5)N5CCCCC5)[nH]4)cc3)cc2)[nH]1)c1ccccc1` [Example 131.1-2, methyl((1R)-2-(methyl((1S)-1-(5-(4′-(2-((2S)-1-((2R)-2-phenyl-2-(1-piperidinyl)acetyl)-2-pyrrolidinyl)-1H-imidazol-5-yl)-4-biphenylyl)-1H-imidazol-2-yl)ethyl)amino)-2-oxo-1-phenylethyl)carbamate], for which the EC50 is 0.01 to 0.999 nM.
As for `CN(C)[C@@H](C(=O)N1CCC[C@H]1c1ncc(-c2ccc(-c3ccc(-c4cnc([C@@H]5CCCN5C(=O)[C@@H](c5ccccc5)N(C)C)[nH]4)cn3)cc2)[nH]1)c1ccccc1` [Example 132, (1R)-2-((2S)-2-(5-(6-(4-(2-((2S)-1-((2R)-2-(dimethylamino)-2-phenylacetyl)-2-pyrrolidinyl)-1H-imidazol-5-yl)phenyl)-3-pyridinyl)-1H-imidazol-2-yl)-1-pyrrolidinyl)-N,N-dimethyl-2-oxo-1-phenylethanamine], the EC50 lay within 0.01 to 0.999 nM.
`O=C([C@H](O)c1ccccc1)N1CCC[C@H]1c1ncc(-c2ccc(-c3ccc(-c4cnc([C@@H]5CCCN5C(=O)[C@H](O)c5ccccc5)[nH]4)cn3)cc2)[nH]1` [Example 133, (1R)-2-((2S)-2-(5-(6-(4-(2-((2S)-1-((2R)-2-hydroxy-2-phenylacetyl)-2-pyrrolidinyl)-1H-imidazol-5-yl)phenyl)-3-pyridinyl)-1H-imidazol-2-yl)-1-pyrrolidinyl)-2-oxo-1-phenylethanol]: the EC50 was 1 to 99 nM.
Turning to `COC(=O)N[C@@H](C(=O)N1CCC[C@H]1c1ncc(-c2ccc(-c3ccc(-c4cnc([C@@H]5CCCN5C(=O)[C@H](NC(=O)OC)c5ccccc5)[nH]4)cn3)cc2)[nH]1)c1ccccc1` [Example 134, methyl ((1R)-2-((2S)-2-(5-(6-(4-(2-((2S)-1-((2R)-2-((methoxycarbonyl)amino)-2-phenylacetyl)-2-pyrrolidinyl)-1H-imidazol-5-yl)phenyl)-3-pyridinyl)-1H-imidazol-2-yl)-1-pyrrolidinyl)-2-oxo-1-phenylethyl)carbamate], the EC50 was 0.01 to 0.999 nM.

The assay is the same for the next values; noted with them: listed as 151 isomer 1, read-out: EC50 range against HCV 1b (Range).
For `CN(C)[C@@H](C(=O)N1CCC[C@H]1c1nc(-c2ccc(-c3ccc(-c4cn(C)c([C@@H]5CCCN5C(=O)[C@@H](c5ccccc5)N(C)C)n4)cc3)cc2)cn1C)c1ccccc1` (single isomer, unassigned) [Example 151 isomer 1], the EC50 lay within 1 to 99 nM.

The same assay, now with this note: listed as 151 isomer 2, read-out: EC50 range against HCV 1b (Range).
Turning to `CN(C)[C@@H](C(=O)N1CCC[C@H]1c1nc(-c2ccc(-c3ccc(-c4cn(C)c([C@@H]5CCCN5C(=O)[C@@H](c5ccccc5)N(C)C)n4)cc3)cc2)cn1C)c1ccccc1` (single isomer, unassigned) [Example 151 isomer 2], the EC50 fell in the range of 100 to 999 nM.

Still in this assay, the particulars now being: read-out: EC50 range against HCV 1b (Range).
In the case of `COC(=O)N[C@@H](C(=O)N1CCC[C@H]1c1ncc(-c2ccc(-c3ccc(-c4cnc([C@@H]5CCCN5C(=O)[C@@H](c5ccccc5)N(C)C)[nH]4)cc3C)cc2)[nH]1)c1ccccc1` [Example 126, methyl ((1R)-2-((2S)-2-(5-(4′-(2-((2S)-1-((2R)-2-(dimethylamino)-2-phenylacetyl)-2-pyrolidinyl)-1H-imidazol-5-yl)-2′-methyl-4-biphenylyl)-1H-imidazol-2-yl)-1-pyrrolidinyl)-2-oxo-1-phenylethyl)carbamate], the concentration for a half-maximal effect (EC50) lay in the range of 0.01 to 0.999 nM.
